Measurements published in US8975417B2, “Pyrazolopyrrolidine derivatives and their use in the treatment of disease” (Novartis AG, priority 2013, dated 2015).

Tests used:
His-Brd4(44-477) = His-Brd4(44-477) (Homo sapiens (Human), UniProt O60885); assay: TR-FRET in-vitro binding assay for BRD4; settings: biochemical
In short: (§1)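 Eight-point dilution series tested against in-house His-BRD2(60-472), BRD3(20-477) or BRD4(44-477) (45 nM in dispensed solution) binding acetyl-histone H4 (AcK5,8,12,16; 60 nM in dispensed solution). Incubation 35 min at 30 °C, pH 7.5 HEPES buffer; detection by TR-FRET using Eu-anti-His6 and streptavidin-allophycocyanin.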

His-Brd2(60-472) = His-Brd2(60-472) (Homo sapiens (Human), UniProt P25440); assay: TR-FRET in-vitro binding assay for BRD2; settings: biochemical
In short: as §1

His-Brd3(20-477) = His-Brd3(20-477) (Homo sapiens (Human), UniProt Q15059); assay: TR-FRET in-vitro binding assay for BRD3; settings: biochemical
In short: as §1

MV-4-11 cells = assay: Cell growth inhibition assay (CellTiter-Glo), MV-4-11; assay type: cell-based; settings: Homo sapiens, MV4-11, read-out: MV-4-11 TGI
In short: (§2)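 Compounds tested as 3-fold dilution series starting at 10 μM (DMSO 0.1% final); viability read by cellular ATP (CTG luminescence) at 37° C. Signal corrected for no-cell background and a day-0 plate, scaled −100% to 100%; four-parameter fitting gives IC50 and TGI.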

THP-1 cells = assay: Cell growth inhibition assay (CellTiter-Glo), THP-1; assay type: cell-based; settings: Homo sapiens, read-out: THP-1 TGI
In short: as §2

K-562 cells = assay: Cell growth inhibition assay (CellTiter-Glo), K-562; assay type: cell-based, human; settings: Homo sapiens, K562, read-out: K-562 TGI
In short: as §2

[1] = biological target: nuclear BRD4-NUT foci in HCC2494 NUT midline carcinoma cells (Homo sapiens (Human), UniProt O60885+Q86Y26); assay: Nut-foci formation assay; assay type: cell-based; settings: 24 hours, read-out: HCS Brd4-NUT IC50
Experimental: HCC2494 NUT midline carcinoma cells (expressing BRD4-NUT-fusion) were obtained from the University of Texas Southwestern and cultured in RPMI-1640 medium containing 10% Foetal Calf Serum at 37° C. in a humidified 5% CO2 incubator.
Compound-mediated inhibition of BRD4 activity was monitored by quantification of the number and intensity of nuclear BRD4-NUT foci using automated immunofluorescence microscopy. Briefly, 5000 cells in 20 μL fresh medium were seeded into Poly-D-Lysine-precoated 384-well plates and incubated overnight at 37° C. and 5% CO2, followed by addition of 5 μl medium containing compound dilutions at 5-fold their final intended concentration. Dose-response effects were assessed by 3-fold serial dilutions of the test compound, starting at 10 μM. Following incubation of the cells for 24 hours at 37° C. and 5% CO2, the cells were fixed by incubation with 3.7% formaldehyde for 10 min, followed by immunofluorescence staining using rabbit anti-NUT (Cell Signaling Technologies, Cat#3625) as primary, and AlexaFluor488-labeled goat anti-rabbit (Invitrogen, Cat#A11008) as secondary antibody (latter complemented with 1 μg/mL Hoechst33342 as DNA dye). Assay plates were imaged using the appropriate filter sets on the Cellomics VTi automated fluorescence microscopy platform (ThermoFisher Scientific) and the population average of the number of NUT-foci per nucleus is quantified using the Cellomics Spot Detection BioApplication image analysis algorithm (ThermoFisher Scientific). The effect of a particular test compound concentration on NUT-foci number and intensity is expressed as percentage of the value obtained for cells treated with vehicle only (DMSO, 0.1% final concentration), which was set as 100. Compound concentrations leading to half-maximal (IC50) inhibition of the aforementioned readout parameters were determined using standard four parameter curve fitting.

[2] = biological target: His-CREBBP (1081-1197) bromodomain (Homo sapiens (Human), UniProt Q92793); assay: AlphaScreen in-vitro binding assay for CREBBP; settings: biochemical
In short: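 Ni-chelate acceptor and streptavidin donor beads (45 µg/mL each, in 50 mM HEPES pH 7.5, 150 mM NaCl, 0.02% BSA) were then added for 60 min at room temperature. IC50 came from 8-point non-linear regression.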

Sequence of His-CREBBP (1081-1197) bromodomain (Q92793 1081-1197): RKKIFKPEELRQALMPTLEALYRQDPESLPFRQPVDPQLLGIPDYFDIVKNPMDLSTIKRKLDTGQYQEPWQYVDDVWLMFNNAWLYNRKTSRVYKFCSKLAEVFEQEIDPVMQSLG
Sequence of His-Brd2(60-472) (P25440 60-472): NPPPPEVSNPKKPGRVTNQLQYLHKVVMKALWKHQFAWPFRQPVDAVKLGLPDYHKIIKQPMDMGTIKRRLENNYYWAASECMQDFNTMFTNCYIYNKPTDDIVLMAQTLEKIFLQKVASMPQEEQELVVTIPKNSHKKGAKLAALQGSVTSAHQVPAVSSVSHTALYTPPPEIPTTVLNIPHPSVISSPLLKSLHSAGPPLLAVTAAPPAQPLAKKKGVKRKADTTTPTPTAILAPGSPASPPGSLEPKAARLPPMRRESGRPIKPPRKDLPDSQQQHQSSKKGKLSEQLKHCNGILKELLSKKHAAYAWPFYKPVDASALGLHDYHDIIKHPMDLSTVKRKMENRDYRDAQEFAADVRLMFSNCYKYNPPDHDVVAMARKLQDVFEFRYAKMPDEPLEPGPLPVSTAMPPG
Sequence of His-Brd3(20-477) (Q15059 20-477): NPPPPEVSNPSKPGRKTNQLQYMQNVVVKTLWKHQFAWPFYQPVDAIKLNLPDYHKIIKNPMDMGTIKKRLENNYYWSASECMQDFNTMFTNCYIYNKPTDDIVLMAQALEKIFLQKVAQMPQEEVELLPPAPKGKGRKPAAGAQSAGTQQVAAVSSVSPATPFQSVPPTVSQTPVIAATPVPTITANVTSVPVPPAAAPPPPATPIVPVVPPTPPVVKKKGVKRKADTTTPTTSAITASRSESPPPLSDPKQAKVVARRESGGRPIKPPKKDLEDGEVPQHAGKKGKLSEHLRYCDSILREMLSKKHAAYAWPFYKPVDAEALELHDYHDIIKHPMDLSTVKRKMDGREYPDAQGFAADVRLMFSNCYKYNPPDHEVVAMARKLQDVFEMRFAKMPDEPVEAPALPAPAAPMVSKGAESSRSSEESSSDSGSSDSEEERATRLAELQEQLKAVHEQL

Row | SMILES | IC50 (His-Brd4(44-477)) | IC50 (His-Brd2(60-472)) | IC50 (His-Brd3(20-477)) | IC50 [1] | IC50 [2] | IC (total growth inhibition) (MV-4-11 cells) | IC (total growth inhibition) (THP-1 cells) | IC (total growth inhibition) (K-562 cells)
1 | Cc1c2c(nn1C1CC1)C(=O)N(c1cc(Cl)c(=O)n(C)c1)[C@@H]2c1ccc(Cl)cc1 [Example 19, (R)-5-(5-chloro-1-methyl-6-oxo-1,6-dihydropyridin-3-yl)-4-(4-chlorophenyl)-2-cyclopropyl-3-methyl-4,5-dihydropyrrolo[3,4-c]pyrazol-6(2H)-one] | 73 nM | 78 nM | 65 nM | 118 nM | – | 0.043 µM | 0.125 µM | > 10 µM
2 | Cc1cc(N2C(=O)c3n[nH]cc3C2c2ccc(Cl)cc2)cn(C)c1=O (stereo not shown) [Example 26, 4-(4-chlorophenyl)-5-(1,5-dimethyl-6-oxo-1,6-dihydropyridin-3-yl)-4,5-dihydropyrrolo[3,4-c]pyrazol-6(2H)-one] | 150 nM | 210 nM | – | 698 nM | – | 0.317 µM | 0.772 µM | > 10 µM
3 | CCc1nn(CCOC)c2c1C(c1ccc(Cl)cc1)N(c1cc(C)c(=O)n(C)c1)C2=O (stereo not shown) [Example 86, 4-(4-chlorophenyl)-5-(1,5-dimethyl-6-oxo-1,6-dihydropyridin-3-yl)-3-ethyl-1-(2-methoxyethyl)-4,5-dihydropyrrolo[3,4-c]pyrazol-6(1H)-one] | – | – | – | 38.4 nM | – | 0.0548 µM | 0.123 µM | > 10 µM
4 | Cc1nn(C2CC2)c2c1C(c1cccc(OC(F)(F)F)c1)N(c1cc(C)c(=O)n(C)c1)C2=O (stereo not shown) [Example 91, 1-cyclopropyl-5-(1,5-dimethyl-6-oxo-1,6-dihydropyridin-3-yl)-3-methyl-4-(3-(trifluoromethoxy)phenyl)-4,5-dihydropyrrolo[3,4-c]pyrazol-6(1H)-one] | – | – | – | 736 nM | – | 0.978 µM | 1.44 µM | > 10 µM
5 | Cc1nn(C2CC2)c2c1[C@H](c1ccc(Cl)cc1)N(c1cc(C)c3nnc(C)n3n1)C2=O [Example 123, (S)-4-(4-chlorophenyl)-1-cyclopropyl-5-(3,8-dimethyl-[1,2,4]triazolo[4,3-b]pyridazin-6-yl)-3-methyl-4,5-dihydropyrrolo[3,4-c]pyrazol-6(1H)-one] | 14000 nM | – | – | 8910 nM | – | 5.81 µM | > 10 µM | > 10 µM
6 | Cc1cc(N2C(=O)c3c(c(CO)nn3C3CC3)C2c2ccc(Cl)cc2)cn(C)c1=O (stereo not shown) [Example 133, 4-(4-chlorophenyl)-1-cyclopropyl-5-(1,5-dimethyl-6-oxo-1,6-dihydropyridin-3-yl)-3-(hydroxymethyl)-4,5-dihydropyrrolo[3,4-c]pyrazol-6(1H)-one] | 79 nM | – | 80 nM | 64.7 nM | – | 0.102 µM | 0.327 µM | > 10 µM
7 | Cc1cc(N2C(=O)c3nn(C4COC4)c(C)c3C2c2ccc(Cl)cc2)cn(C)c1=O (stereo not shown) [Example 134, 4-(4-chlorophenyl)-5-(1,5-dimethyl-6-oxo-1,6-dihydropyridin-3-yl)-3-methyl-2-(oxetan-3-yl)-4,5-dihydropyrrolo[3,4-c]pyrazol-6(2H)-one] | 160 nM | 190 nM | 130 nM | 92.2 nM | – | 0.187 µM | 0.291 µM | > 10 µM
8 | Cc1nn(C2CNC2)c2c1C(c1ccc(Cl)cc1)N(c1cc(C)c(=O)n(C)c1)C2=O (stereo not shown) [Example 138, 1-(azetidin-3-yl)-4-(4-chlorophenyl)-5-(1,5-dimethyl-6-oxo-1,6-dihydropyridin-3-yl)-3-methyl-4,5-dihydropyrrolo[3,4-c]pyrazol-6(1H)-one] | 290 nM | – | 240 nM | 845 nM | – | 0.353 µM | 1.51 µM | > 10 µM
9 | CCn1nc2c(c1C)C(c1ccc(Cl)cc1F)N(c1cc(C)c3nnc(C)n3c1)C2=O (stereo not shown) [Example 186, 4-(4-chloro-2-fluorophenyl)-5-(3,8-dimethyl-[1,2,4]triazolo[4,3-a]pyridin-6-yl)-2-ethyl-3-methyl-4,5-dihydropyrrolo[3,4-c]pyrazol-6(2H)-one] | 69 nM | 140 nM | 61 nM | – | 6100 nM | 0.0882 µM | 0.145 µM | > 10 µM

Continued, in another order:

Row | IC50 (His-Brd4(44-477)) | IC50 (His-Brd2(60-472)) | IC50 (His-Brd3(20-477)) | IC50 [1] | IC50 [2] | SMILES | IC (total growth inhibition) (MV-4-11 cells) | IC (total growth inhibition) (THP-1 cells) | IC (total growth inhibition) (K-562 cells)
10 | 46 nM | 120 nM | 51 nM | – | 27000 nM | CCn1nc2c(c1C)C(c1ccc(F)cc1F)N(c1cc(C)c3nnc(C)n3c1)C2=O (stereo not shown) [Example 182, 4-(2,4-difluorophenyl)-5-(3,8-dimethyl-[1,2,4]triazolo[4,3-a]pyridin-6-yl)-2-ethyl-3-methyl-4,5-dihydropyrrolo[3,4-c]pyrazol-6(2H)-one] | 0.12 µM | 0.217 µM | > 10 µM
11 | 29 nM | 47 nM | 36 nM | – | 24000 nM | COc1ncccc1-n1nc(C)c2c1C(=O)N(c1cc(C)c3nnc(C)n3c1)C2c1ccc(Cl)cc1F (stereo not shown) [Example 184, 4-(4-chloro-2-fluorophenyl)-5-(3,8-dimethyl-[1,2,4]triazolo[4,3-a]pyridin-6-yl)-1-(2-methoxypyridin-3-yl)-3-methyl-4,5-dihydropyrrolo[3,4-c]pyrazol-6(1H)-one] | 0.136 µM | 0.337 µM | > 10 µM
12 | < 37 nM | 71 nM | 36 nM | – | 14200 nM | CCn1nc(C)c2c1C(=O)N(c1cc(C)c3nnc(C)n3c1)C2c1ccc(Cl)cc1F (stereo not shown) [Example 185, 4-(4-chloro-2-fluorophenyl)-5-(3,8-dimethyl-[1,2,4]triazolo[4,3-a]pyridin-6-yl)-1-ethyl-3-methyl-4,5-dihydropyrrolo[3,4-c]pyrazol-6(1H)-one] | 0.0427 µM | 0.0877 µM | > 10 µM
13 | 29 nM | 40 nM | 33 nM | – | 3800 nM | Cc1nn(C(C)C)c2c1[C@@H](c1ccc(Cl)cc1F)N(c1cc(C)c3nnc(C)n3c1)C2=O [Example 189, (S)-4-(4-chloro-2-fluorophenyl)-5-(3,8-dimethyl-[1,2,4]triazolo[4,3-a]pyridin-6-yl)-1-isopropyl-3-methyl-4,5-dihydropyrrolo[3,4-c]pyrazol-6(1H)-one] | 0.0269 µM | 0.0261 µM | > 10 µM
14 | 45 nM | 90 nM | 65 nM | – | 5200 nM | COc1ncccc1-n1nc2c(c1C)C(c1ccc(Cl)cc1F)N(c1cc(C)c3nnc(C)n3c1)C2=O (stereo not shown) [Example 194, 4-(4-chloro-2-fluorophenyl)-5-(3,8-dimethyl-[1,2,4]triazolo[4,3-a]pyridin-6-yl)-2-(2-methoxypyridin-3-yl)-3-methyl-4,5-dihydropyrrolo[3,4-c]pyrazol-6(2H)-one] | 0.0936 µM | 0.174 µM | > 10 µM
15 | < 11 nM | 20 nM | 16 nM | – | > 37000 nM | Cc1nn(C2CC2)c2c1C(c1ccc(Cl)cc1)N(c1cc(C)c3nnc(C(F)F)n3n1)C2=O (stereo not shown) [Example 195, 4-(4-chlorophenyl)-1-cyclopropyl-5-(3-(difluoromethyl)-8-methyl-[1,2,4]triazolo[4,3-b]pyridazin-6-yl)-3-methyl-4,5-dihydropyrrolo[3,4-c]pyrazol-6(1H)-one] | 0.0452 µM | 0.0804 µM | > 10 µM
